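Step 1: Grow cells in 96-well plates. Step 2: Expose to compound for 48 hours at 5 concentrations. Step 3: Interpolate endpoints linearly; if unreached, use highest concentration. The concentration for 50% growth inhibition is given as GI50. TGI: total growth inhibition.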 Some results are limits rather than exact numbers.

The test system of the first assay is SN12C renal. Description: NCI tumour cell line growth inhibition, 48 h.
For `CC(=O)Nc1nc(C#N)[nH]c1C#N`, the TGI is above 100 µM.

As for `O=C(O)/C=C(/C(=O)O)C12CCN3CC4=CCOC5CC(=O)NC1C5C4CC32` (configuration not stated), the TGI was above 100 µM.

Regarding `Cc1c(S(=O)(=O)c2ccccc2)c(N)n(CCN(C)C)c1C`, the TGI is above 100 µM.

Regarding `COc1ccc2c(C)cc(=O)oc2c1OC`, the TGI is above 100 µM.

Molecule `COc1cccc2c1OC1(C=C2)Oc2ccccc2C(=O)N1C` (configuration not stated) came in with a TGI above 100 µM.

Molecule `O=[N+]([O-])c1ccc(Oc2c(Cl)cc(S(=O)(=O)/N=C(\NO)Nc3ccc(Cl)cc3)cc2Cl)cc1` had a TGI of 25.8 µM.

Regarding `Cc1cc(N(CCOS(C)(=O)=O)CCOS(C)(=O)=O)ccc1C=O`, the TGI came to 11.6 µM.

`O=c1[nH]c(=O)n(C2OC(CO)C(O)C2O)c2nc(-c3ccc(-c4ccccc4)cc3)cnc12` (configuration not stated) yielded a TGI above 100 µM.

`CN1CSC(=S)N(c2c3ccccc3nc3ccc(Br)cc23)C1` came in with a TGI of 18.8 µM.

With `CCCCCCOc1ccc(C(=O)NOC)cc1`, the TGI was above 100 µM.

In turn, `NS(=O)(=O)c1cc(Cl)c(NC(=S)NC(=O)Nc2ccc(Cl)c(Cl)c2)c(Cl)c1` came in with a TGI above 100 µM.

Molecule `Cc1cn(C2CC(O)C(CO)O2)c(=O)[nH]c1=O` (configuration not stated) had a TGI above 4240 µM.

Take `CCOC(=O)c1c(C)nc2c3ccccc3c(C#N)c(C)n12`: the TGI is above 100 µM.

The molecule `Cc1cc2c3c(nc4ccccc42)C(=O)c2ccccc2-c3n1` returned a TGI above 100 µM.

`COc1ccc2c(c1)/C(=C\c1c(Cl)nc3sc(C)cn13)C(=O)N2` returned a TGI of 21.9 µM.

Consider `CO[C@H]1/C=C(/C)CCC[C@H](C)[C@H](O)[C@@H](C)C(=O)C(C)(C)[C@@H](O)CC(=O)O[C@@H]1/C(C)=C/c1csc(C)n1`, for which the GI50 is 0.0488 µM and the TGI was above 100 µM.

In turn, `OCCc1ccsc1-c1sc(-c2cc(CCO)c(-c3sccc3CCO)s2)cc1CCO` returned a TGI of 63.1 µM.

For the molecule `COc1cccc2c(=O)oc(-c3ccc(C(C)(C)C)cc3)nc12`, the TGI is above 100 µM.

On to `COc1ccc2c(c1)OCC1Cc3ccccc3OC21` (configuration not stated), for which the TGI is above 100 µM.

The molecule `COC(=O)C1CCC(=O)N1C(c1ccc(OC)cc1)c1ccc2c(c1)OCO2` (configuration not stated) returned a TGI above 100 µM.

`CC1=NN(c2cccc(Cl)c2)C2(C1=C/C=C/c1ccccc1)C(Cl)C(=O)N2c1nc2ccccc2s1` (configuration not stated) registered a TGI above 100 µM.

For `C=CCSc1nnc2cc(CN3CCCC3)c(-c3ccc(Cl)cc3)nn12`, the TGI is 32.1 µM.

Regarding `CCOC(=O)c1cn2c(nc1=O)N[C@H]1CCCC[C@@H]12`, the TGI was above 100 µM.

For `CN(C)c1ccc(C(=N/N=C2\C(=O)Nc3ccccc32)c2ccc(N(C)C)cc2)cc1`, the TGI worked out at 46.8 µM.

In the case of `Cc1ccc(C(=C2Sc3ccccc3S2)C(=C2Sc3ccccc3S2)c2ccc(C)s2)s1`, the TGI is above 100 µM.

The molecule `CC1(C)CCCC2OC2CCC(C)(C)C1=O` (configuration not stated) displayed a TGI above 100 µM.

The subject of another assay is SK-MEL-5 melanoma. Description: NCI tumour cell line growth inhibition, 48 h.
Molecule `CC(=O)Nc1nc(C#N)[nH]c1C#N` displayed a TGI above 100 µM.

For `O=C(O)/C=C(/C(=O)O)C12CCN3CC4=CCOC5CC(=O)NC1C5C4CC32` (configuration not stated), the TGI was above 100 µM.

Molecule `Cc1c(S(=O)(=O)c2ccccc2)c(N)n(CCN(C)C)c1C` returned a TGI above 100 µM.

`COc1ccc2c(C)cc(=O)oc2c1OC`: the TGI was above 100 µM.

`COc1cccc2c1OC1(C=C2)Oc2ccccc2C(=O)N1C` (configuration not stated): the TGI is above 100 µM.

In turn, `O=[N+]([O-])c1ccc(Oc2c(Cl)cc(S(=O)(=O)/N=C(\NO)Nc3ccc(Cl)cc3)cc2Cl)cc1` returned a TGI of 22.2 µM.

In the case of `Cc1cc(N(CCOS(C)(=O)=O)CCOS(C)(=O)=O)ccc1C=O`, the TGI was above 100 µM.

Consider `O=c1[nH]c(=O)n(C2OC(CO)C(O)C2O)c2nc(-c3ccc(-c4ccccc4)cc3)cnc12` (configuration not stated), for which the TGI was above 100 µM.

`CN1CSC(=S)N(c2c3ccccc3nc3ccc(Br)cc23)C1` came in with a TGI of 26.2 µM.

`CCCCCCOc1ccc(C(=O)NOC)cc1` yielded a TGI above 100 µM.

Molecule `NS(=O)(=O)c1cc(Cl)c(NC(=S)NC(=O)Nc2ccc(Cl)c(Cl)c2)c(Cl)c1` registered a TGI of 40.3 µM.

`Cc1cn(C2CC(O)C(CO)O2)c(=O)[nH]c1=O` (configuration not stated): the TGI was above 5000 µM.

On to `CCOC(=O)c1c(C)nc2c3ccccc3c(C#N)c(C)n12`, for which the TGI was above 100 µM.

Regarding `Cc1cc2c3c(nc4ccccc42)C(=O)c2ccccc2-c3n1`, the TGI came out at 3.1 µM.

In turn, `COc1ccc2c(c1)/C(=C\c1c(Cl)nc3sc(C)cn13)C(=O)N2` came in with a TGI of 11.8 µM.

In the case of `CO[C@H]1/C=C(/C)CCC[C@H](C)[C@H](O)[C@@H](C)C(=O)C(C)(C)[C@@H](O)CC(=O)O[C@@H]1/C(C)=C/c1csc(C)n1`, the GI50 is 0.0186 µM and the TGI was above 100 µM.

The molecule `OCCc1ccsc1-c1sc(-c2cc(CCO)c(-c3sccc3CCO)s2)cc1CCO` yielded a TGI of 52.9 µM.

`COc1cccc2c(=O)oc(-c3ccc(C(C)(C)C)cc3)nc12`: the TGI was determined as 87.4 µM.

For the molecule `COc1ccc2c(c1)OCC1Cc3ccccc3OC21` (configuration not stated), the TGI is above 10 µM.

Turning to `COC(=O)C1CCC(=O)N1C(c1ccc(OC)cc1)c1ccc2c(c1)OCO2` (configuration not stated), the TGI turned out to be 81.7 µM.

Turning to `CC1=NN(c2cccc(Cl)c2)C2(C1=C/C=C/c1ccccc1)C(Cl)C(=O)N2c1nc2ccccc2s1` (configuration not stated), the TGI was above 58.7 µM.

`C=CCSc1nnc2cc(CN3CCCC3)c(-c3ccc(Cl)cc3)nn12` displayed a TGI of 31.1 µM.

`CCOC(=O)c1cn2c(nc1=O)N[C@H]1CCCC[C@@H]12` gave a TGI above 100 µM.

On to `CN(C)c1ccc(C(=N/N=C2\C(=O)Nc3ccccc32)c2ccc(N(C)C)cc2)cc1`, for which the TGI came to 13.9 µM.

As for `Cc1ccc(C(=C2Sc3ccccc3S2)C(=C2Sc3ccccc3S2)c2ccc(C)s2)s1`, the TGI was above 100 µM.

In turn, `CC1(C)CCCC2OC2CCC(C)(C)C1=O` (configuration not stated) returned a TGI above 100 µM.

The subject of a further assay is MOLT-4 leukemia. Description: NCI tumour cell line growth inhibition, 48 h.
`CC(=O)Nc1nc(C#N)[nH]c1C#N` gave a TGI above 100 µM.

The molecule `O=C(O)/C=C(/C(=O)O)C12CCN3CC4=CCOC5CC(=O)NC1C5C4CC32` (configuration not stated) gave a TGI above 100 µM.

On to `Cc1c(S(=O)(=O)c2ccccc2)c(N)n(CCN(C)C)c1C`, for which the TGI was above 100 µM.

Molecule `COc1ccc2c(C)cc(=O)oc2c1OC` came in with a TGI above 100 µM.

The molecule `COc1cccc2c1OC1(C=C2)Oc2ccccc2C(=O)N1C` (configuration not stated) had a TGI of 81.4 µM.

With `O=[N+]([O-])c1ccc(Oc2c(Cl)cc(S(=O)(=O)/N=C(\NO)Nc3ccc(Cl)cc3)cc2Cl)cc1`, the TGI came out at 21.7 µM.

With `Cc1cc(N(CCOS(C)(=O)=O)CCOS(C)(=O)=O)ccc1C=O`, the TGI was 14.8 µM.

For `O=c1[nH]c(=O)n(C2OC(CO)C(O)C2O)c2nc(-c3ccc(-c4ccccc4)cc3)cnc12` (configuration not stated), the TGI was above 100 µM.

In the case of `CN1CSC(=S)N(c2c3ccccc3nc3ccc(Br)cc23)C1`, the TGI is 5.87 µM.

The molecule `CCCCCCOc1ccc(C(=O)NOC)cc1` displayed a TGI above 100 µM.

With `NS(=O)(=O)c1cc(Cl)c(NC(=S)NC(=O)Nc2ccc(Cl)c(Cl)c2)c(Cl)c1`, the TGI was above 100 µM.

The molecule `Cc1cn(C2CC(O)C(CO)O2)c(=O)[nH]c1=O` (configuration not stated) came in with a TGI of 4090 µM.

For the molecule `CCOC(=O)c1c(C)nc2c3ccccc3c(C#N)c(C)n12`, the TGI is above 100 µM.

These data come from PubChem BioAssay (NCI).
